Source: ChEMBL document CHEMBL3739332, “γ- and δ-Lactams from the Leaves of Clausena lansium” (2015)
Activity calls are given as the source filed them. The rule behind the calls is not given here.

Assays:
[1] = system: Cortical neurone; test: Neuroprotective activity in Sprague-Dawley rat cortical neurons assessed as inhibition of amyloid beta (25 to 35 residues)-induced neurotoxicity compound pretreated at 10 to 50 uM for 2 hrs followed by addition of 10 uM amyloid beta (25 to 35 residues) for 40 hrs by MTT assay; type: functional
[2] = Neuroprotective activity in Sprague-Dawley rat cortical neurons assessed as inhibition of amyloid beta (25 to 35 residues)-induced neurotoxicity compound pretreated at 50 uM for 2 hrs followed by addition of 10 uM amyloid beta (25 to 35 residues) for 40 hrs by MTT assay; type: functional, Cortical neurone

Compound	inhibition [1]	inhibition (INH) [2]
CO[C@H](c1ccccc1)[C@H]1[C@H](c2ccccc2)[C@H](O)C(=O)N1C	inactive	
CO[C@@H](c1ccccc1)[C@@H]1[C@@H](c2ccccc2)[C@H](O)C(=O)N1C		22.24%
CO[C@H](c1ccccc1)[C@@H]1[C@@H](c2ccccc2)[C@H](O)C(=O)N1C	inactive	
